Laboratory results reported in the supplement of paper PMC4862054.
“And” between values parts separate entries of the source, which are not always exact repeats. Equal values may be shown once.

Tests used:
Assay in all cases: normalised viability (% of control), CellTiter-Blue; higher = more viable cells (about 100 = DMSO control)
Details in all cases: incubation time: 72 h
CAL-148 [1] = system: CAL-148
Method in brief: (§1)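 384-well plates were pre-loaded with compound in 5 µl medium before 20 µl of breast cancer cell suspension was seeded. Following 72 h incubation, 2.5 µl CellTiter-Blue reagent was added for 2 h at 37 °C. Fluorescence was read at 560/590 nm and plates were normalised to vehicle (100) and a positive kill control (0), checked by Z'-factor. Normalised viability is reported at a single listed concentration of the series.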

MDA-MB-436 [2] = system: MDA-MB-436
Method in brief: as §1

SK-BR-3 [3] = system: SK-BR-3
Method in brief: as §1

MFM-223 [4] = system: MFM-223
Method in brief: as §1

MDA-MB-453 [5] = system: MDA-MB-453
Method in brief: as §1

CAL-120 [6] = system: CAL-120
Method in brief: as §1

CAL-85-1 [7] = system: CAL-85-1
Method in brief: as §1

BT-549 [8] = system: BT-549
Method in brief: as §1

Hs578T [9] = system: Hs578T
Method in brief: as §1

MDA-MB-231 = system: MDA-MB-231
Experimental: (§2)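 DSRT, CellTiter-Blue viability, 72 h incubation. Signal is normalised to DMSO and benzethonium chloride controls. Value is the normalised response at dose 3.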

CAL-148 [10] = system: CAL-148; remark: listed apart in the source
Experimental: as §2

HDQ-P1 = system: HDQ-P1
Experimental: as §2

HCC1937 = system: HCC1937
Experimental: as §2

HCC1143 = system: HCC1143
Experimental: as §2

MDA-MB-436 [11] = system: MDA-MB-436; remark: listed apart in the source
Experimental: as §2

SK-BR-3 [12] = system: SK-BR-3; remark: listed apart in the source
Experimental: as §2

MDA-MB-468 = system: MDA-MB-468
Experimental: as §2

HCC1599 = system: HCC1599
Experimental: as §2

MFM-223 [13] = system: MFM-223; remark: listed apart in the source
Experimental: as §2

CAL-51 = system: CAL-51
Experimental: as §2

MDA-MB-453 [14] = system: MDA-MB-453; remark: listed apart in the source
Experimental: as §2

CAL-120 [15] = system: CAL-120; remark: listed apart in the source
Experimental: as §2

BT-474 = system: BT-474
Experimental: as §2

CAL-85-1 [16] = system: CAL-85-1; remark: listed apart in the source
Experimental: as §2

DU-4475 = system: DU-4475
Experimental: as §2

BT-549 [17] = system: BT-549; remark: listed apart in the source
Experimental: as §2

Hs578T [18] = system: Hs578T; remark: listed apart in the source
Experimental: as §2

Cc1cn(-c2cc(NC(=O)c3ccc(C)c(Nc4nccc(-c5cccnc5)n4)c3)cc(C(F)(F)F)c2)cn1 [Nilotinib]
Details	normalised viability
BT-474, 100 nM	104% and 102%
BT-549 [8], 10 nM	97.3% and 88.6%
BT-549 [8], 1000 nM	71.5% and 73.6%
BT-549 [8], 10000 nM	43.4% and 40.7%
BT-549 [17], 100 nM	95.6% and 88.2%
CAL-51, 10 nM	109% and 111%
CAL-85-1 [7], 3 nM	87% and 87.5%
CAL-85-1 [7], 30 nM	81.8% and 80.2%
CAL-85-1 [7], 100 nM	85.7% and 90.7%
CAL-85-1 [16], 10 nM	93.2% and 92.5%
CAL-120 [6], 10 nM	78% and 85.4%
CAL-120 [6], 1000 nM	82.5% and 88%
CAL-120 [6], 10000 nM	90.2% and 92.4%
CAL-120 [15], 100 nM	80.1% and 86.2%
CAL-148 [1], 3 nM	77% and 88.5%
CAL-148 [1], 30 nM	86.2% and 93.4%
CAL-148 [1], 100 nM	90.8% and 95.3%
CAL-148 [10], 10 nM	89.9% and 90.2%
DU-4475, 10 nM	98.8% and 104%
HCC1143, 100 nM	94.3% and 91.8%
HCC1599, 100 nM	113% and 111%
HCC1937, 100 nM	90.7% and 85.8%
HDQ-P1, 10 nM	101% and 85.7%
Hs578T [9], 10 nM	97.3% and 112%
Hs578T [9], 1000 nM	89% and 84.7%
Hs578T [9], 10000 nM	106% and 91%
Hs578T [18], 100 nM	78.3% and 89.4%
MDA-MB-231, 100 nM	80.4% and 89.5%
MDA-MB-436 [2], 10 nM	98.2% and 88.3%
MDA-MB-436 [2], 1000 nM	75.7% and 76.8%
MDA-MB-436 [2], 10000 nM	92.5% and 75.2%
MDA-MB-436 [11], 100 nM	100% and 93.8%
MDA-MB-453 [5], 3 nM	111% and 103%
MDA-MB-453 [5], 30 nM	95.6% and 90%
MDA-MB-453 [5], 100 nM	91.7% and 103%
MDA-MB-453 [14], 10 nM	94% and 89%
MDA-MB-468, 100 nM	95.9% and 102%
MFM-223 [4], 10 nM	92.3% and 91.1%
MFM-223 [4], 1000 nM	98.9% and 91%
MFM-223 [4], 10000 nM	91.7% and 89.4%
MFM-223 [13], 100 nM	99.6% and 95.5%
SK-BR-3 [3], 10 nM	104% and 94.5%
SK-BR-3 [3], 1000 nM	100% and 96.5%
SK-BR-3 [3], 10000 nM	90.4% and 94.3%
SK-BR-3 [12], 100 nM	73.4% and 86.6%

CNC(=O)c1ccccc1Sc1ccc2c(/C=C/c3ccccn3)n[nH]c2c1 [Axitinib]
Details	normalised viability [%]
BT-474, 100 nM	114
BT-549 [8], 10 nM	96.6
BT-549 [8], 1000 nM	92.6
BT-549 [8], 10000 nM	42.5
BT-549 [17], 100 nM	113
CAL-51, 10 nM	107
CAL-85-1 [7], 3 nM	93
CAL-85-1 [7], 30 nM	84
CAL-85-1 [7], 100 nM	104
CAL-85-1 [16], 10 nM	96
CAL-120 [6], 10 nM	91.2
CAL-120 [6], 1000 nM	94.7
CAL-120 [6], 10000 nM	55.2
CAL-120 [15], 100 nM	96.8
CAL-148 [1], 3 nM	83
CAL-148 [1], 30 nM	95.3
CAL-148 [1], 100 nM	90.1
CAL-148 [10], 10 nM	98
DU-4475, 10 nM	113
HCC1143, 100 nM	101
HCC1599, 100 nM	89.7
HCC1937, 100 nM	118
HDQ-P1, 10 nM	100
Hs578T [9], 10 nM	92.1
Hs578T [9], 1000 nM	93
Hs578T [9], 10000 nM	54.2
Hs578T [18], 100 nM	73.2
MDA-MB-231, 100 nM	102
MDA-MB-436 [2], 10 nM	103
MDA-MB-436 [2], 1000 nM	21.7
MDA-MB-436 [2], 10000 nM	46
MDA-MB-436 [11], 100 nM	70
MDA-MB-453 [5], 3 nM	103
MDA-MB-453 [5], 30 nM	108
MDA-MB-453 [5], 100 nM	97.2
MDA-MB-453 [14], 10 nM	104
MDA-MB-468, 100 nM	101
MFM-223 [4], 10 nM	86.7
MFM-223 [4], 1000 nM	47.6
MFM-223 [4], 10000 nM	47.7
MFM-223 [13], 100 nM	82.6
SK-BR-3 [3], 10 nM	91
SK-BR-3 [3], 1000 nM	88.9
SK-BR-3 [3], 10000 nM	63.8
SK-BR-3 [12], 100 nM	58.8

C=CCn1c(=O)c2cnc(Nc3ccc(N4CCN(C)CC4)cc3)nc2n1-c1cccc(C(C)(C)O)n1 [MK1775]
Details	normalised viability [%]
BT-474, 100 nM	94.6
BT-549 [8], 10 nM	103
BT-549 [8], 1000 nM	31
BT-549 [8], 10000 nM	9.32
BT-549 [17], 100 nM	97.4
CAL-51, 10 nM	94.1
CAL-85-1 [7], 3 nM	79.6
CAL-85-1 [7], 30 nM	80.9
CAL-85-1 [7], 100 nM	78.6
CAL-85-1 [16], 10 nM	81.4
CAL-120 [6], 10 nM	91.2
CAL-120 [6], 1000 nM	26
CAL-120 [6], 10000 nM	9.09
CAL-120 [15], 100 nM	75.8
CAL-148 [1], 3 nM	85.1
CAL-148 [1], 30 nM	92.8
CAL-148 [1], 100 nM	81.5
CAL-148 [10], 10 nM	87.4
DU-4475, 10 nM	109
HCC1143, 100 nM	94.8
HCC1599, 100 nM	99.4
HCC1937, 100 nM	78.2
HDQ-P1, 10 nM	114
Hs578T [9], 10 nM	111
Hs578T [9], 1000 nM	34.4
Hs578T [9], 10000 nM	16.2
Hs578T [18], 100 nM	83.2
MDA-MB-231, 100 nM	88.1
MDA-MB-436 [2], 10 nM	113
MDA-MB-436 [2], 1000 nM	37
MDA-MB-436 [2], 10000 nM	21.4
MDA-MB-436 [11], 100 nM	86.3
MDA-MB-453 [5], 3 nM	89.6
MDA-MB-453 [5], 30 nM	86.3
MDA-MB-453 [5], 100 nM	88.7
MDA-MB-453 [14], 10 nM	100
MDA-MB-468, 100 nM	95.5
MFM-223 [4], 10 nM	102
MFM-223 [4], 1000 nM	44.3
MFM-223 [4], 10000 nM	40.1
MFM-223 [13], 100 nM	83.3
SK-BR-3 [3], 10 nM	79.8
SK-BR-3 [3], 1000 nM	9.36
SK-BR-3 [3], 10000 nM	10.2
SK-BR-3 [12], 100 nM	62.1

CC(=O)[C@]1(O)Cc2c(O)c3c(c(O)c2[C@@H](O[C@H]2C[C@H](N)[C@H](O)[C@H](C)O2)C1)C(=O)c1ccccc1C3=O [Idarubicin]
Details	normalised viability [%]
BT-474, 10 nM	113
BT-549 [8], 1 nM	108
BT-549 [8], 100 nM	50
BT-549 [8], 1000 nM	9.06
BT-549 [17], 10 nM	82.6
CAL-51, 1 nM	105
CAL-85-1 [7], 0.3 nM	104
CAL-85-1 [7], 3 nM	91.9
CAL-85-1 [7], 10 nM	94.3
CAL-85-1 [16], 1 nM	92.3
CAL-120 [6], 1 nM	108
CAL-120 [6], 100 nM	40.7
CAL-120 [6], 1000 nM	11.1
CAL-120 [15], 10 nM	70.1
CAL-148 [1], 0.3 nM	91.7
CAL-148 [1], 3 nM	93.2
CAL-148 [1], 10 nM	63.2
CAL-148 [10], 1 nM	93.9
DU-4475, 1 nM	98
HCC1143, 10 nM	103
HCC1599, 10 nM	97.2
HCC1937, 10 nM	47.2
HDQ-P1, 1 nM	113
Hs578T [9], 1 nM	107
Hs578T [9], 100 nM	57.1
Hs578T [9], 1000 nM	5.7
Hs578T [18], 10 nM	72.8
MDA-MB-231, 10 nM	102
MDA-MB-436 [2], 1 nM	113
MDA-MB-436 [2], 100 nM	57.5
MDA-MB-436 [2], 1000 nM	18.8
MDA-MB-436 [11], 10 nM	106
MDA-MB-453 [5], 0.3 nM	108
MDA-MB-453 [5], 3 nM	98.4
MDA-MB-453 [5], 10 nM	100
MDA-MB-453 [14], 1 nM	98
MDA-MB-468, 10 nM	73.3
MFM-223 [4], 1 nM	107
MFM-223 [4], 100 nM	92.5
MFM-223 [4], 1000 nM	11.5
MFM-223 [13], 10 nM	103
SK-BR-3 [3], 1 nM	107
SK-BR-3 [3], 100 nM	26.4
SK-BR-3 [3], 1000 nM	4.23
SK-BR-3 [12], 10 nM	67
